pIC50: −log10 of the molar value. Where only a bound is given, the exact number is not on record here.

The test in a line: Displacement of [125I]gastrin from guinea pig gastric glands. (Displacement assays read how much labelled ligand stays bound in the presence of the test substance.)
`Cc1nnc2n1-c1ccc(Cl)cc1C(c1ccccc1)=NC2` showed a pIC50 of less than 4.00.
The compound `Cc1nnc2n1-c1ccccc1C(c1ccccc1)=NC2NC(=O)Nc1ccc(Cl)cc1` (stereo not drawn) [1-(4-Chloro-phenyl)-3-(1-methyl-6-phenyl-4H-2,3,5,10b-tetraaza-benzo[e]azulen-4-yl)-urea] showed a pIC50 of 6.42.
Then `O=C(Nc1ccc(Cl)cc1)NC1N=C(c2ccccc2)c2ccccc2-n2cnnc21` (stereo not drawn) [1-(4-Chloro-phenyl)-3-(6-phenyl-4H-2,3,5,10b-tetraaza-benzo[e]azulen-4-yl)-urea], with 6.42.
In the case of `Cc1nnc2n1-c1ccccc1C(c1ccccc1F)=NC2NC(=O)c1cc2ccccc2[nH]1` (stereo not drawn) [1H-Indole-2-carboxylic acid [6-(2-fluoro-phenyl)-1-methyl-4H-2,3,5,10b-tetraaza-benzo[e]azulen-4-yl]-amide(0.2EtOAc)], the pIC50 is 8.15.
In turn, `O=C(NC1N=C(c2ccccc2F)c2ccccc2-n2cnnc21)c1cc2ccccc2[nH]1` (stereo not drawn) [1H-Indole-2-carboxylic acid [6-(2-fluoro-phenyl)-4H-2,3,5,10b-tetraaza-benzo[e]azulen-4-yl]-amide(0.1EtOAc)] showed a pIC50 of 7.19.
`O=C(NC1N=C(c2ccccc2F)c2ccccc2-n2cnnc21)c1ccc(Cl)cc1` (stereo not drawn) [4-Chloro-N-[6-(2-fluoro-phenyl)-4H-2,3,5,10b-tetraaza-benzo[e]azulen-4-yl]-benzamide] had a pIC50 of 5.62.
In turn, `Fc1ccccc1C1=N[C@H](Cc2c[nH]c3ccccc23)c2nnc(-c3ccccc3)n2-c2ccccc21` [6-(2-Fluoro-phenyl)-4-(1H-indol-3-ylmethyl)-1-phenyl-4H-2,3,5,10b-tetraaza-benzo[e]azulene(0.55CHCl3)] showed a pIC50 of less than 4.00.
As for `Fc1ccccc1C1=N[C@H](Cc2c[nH]c3ccccc23)c2nnc(C(Cl)(Cl)Cl)n2-c2ccccc21` [6-(2-Fluoro-phenyl)-4-(1H-indol-3-ylmethyl)-1-trichloromethyl-4H-2,3,5,10b-tetraaza-benzo[e]azulene(0.5CHCl3)], the figure is less than 4.00.
As for `Fc1ccccc1C1=N[C@H](Cc2c[nH]c3ccccc23)c2nncn2-c2ccccc21` [6-(2-Fluoro-phenyl)-4-(1H-indol-3-ylmethyl)-4H-2,3,5,10b-tetraaza-benzo[e]azulene(0.5CHCl3)], the figure is 4.60; as for `O=C(NC1N=C(c2ccccc2)c2ccccc2-n2cnnc21)OCc1ccccc1` (stereo not drawn) [(6-Phenyl-4H-2,3,5,10b-tetraaza-benzo[e]azulen-4-yl)-carbamic acid benzyl ester(0.25EtOAc)], 5.32.
As to `Cc1nnc2n1-c1ccc(Cl)cc1C(c1ccccc1Cl)=NC2` [Halcion], the pIC50 is less than 4.00.
`CN(C)Cc1nnc2n1-c1ccccc1C(c1ccccc1F)=N[C@@H]2Cc1c[nH]c2ccccc12` [[6-(2-Fluoro-phenyl)-4-(1H-indol-3-ylmethyl)-4H-2,3,5,10b-tetraaza-benzo[e]azulen-1-ylmethyl]-dimethyl-amine(0.22CHCl3)] gave a pIC50 of 4.22.
As for `O=C(NC1N=C(c2ccccc2F)c2ccccc2-n2cnnc21)OCc1ccccc1` (stereo not drawn) [[6-(2-Fluoro-phenyl)-4H-2,3,5,10b-tetraaza-benzo[e]azulen-4-yl]-carbamic acid benzyl ester], the figure is 5.52.

As usually defined, the pIC50 is −log10 of the IC50, conventionally taken in molar units. Low readings indicate a large IC50, high ones a small IC50.
